{
  "source": "patent US20260364061A1",
  "about": "“COMPOUNDS, COMPOSITIONS, AND METHODS FOR THE TREATMENT OF CANCER” (Ohio State Innovation Foundation, priority 2023, published 2026)",
  "key": {"[1]": {"tested_on": "shIWS1 (IWS1 knockdown) dedifferentiated liposarcoma cells (cell lines Lipo863 and Lipo815)", "assay": "Migration assay, IWS1 knockdown (shIWS1) cells", "assay_type": "cell-based, human", "details": "24 hours of treatment, vs non-treatment control", "method": "(§1) FIG. 16A-16B. Evaluation of the effect of IWS1 inhibitors identified from in silico screening on the migration of cancer cells. […] The migration assay was performed using two cell groups: Empty Vector (EV, Negative control) and shIWS1 (IWS1 knockdown).\n(§2) To evaluate these compounds, we used dedifferentiated cell lines Lipo863 and Lipo815 as an in-vitro model of dedifferentiated liposarcoma (DDLPS). […] FIG. 15A-15C. Using these candidates as potential pharmacological inhibitors of IWS1, we expected to reproduce/mimic phenotypical changes specific for lentiviral IWS1 knockdown. […] We performed a migration assay to assess the ability of cells to migrate after 24 hours of treatment compared to intact cells (EV) as well as IWS1 knockdown cells (shIWS1). Using drug concentrations that would not affect the viability of the cells, we sought to evaluate predominantly the migratory ability of cells. […] FIG. 17."}, "[2]": {"tested_on": "Empty Vector (EV) dedifferentiated liposarcoma cells (cell lines Lipo863 and Lipo815)", "assay": "Migration assay, Empty Vector (EV) control cells", "assay_type": "cell-based, human", "details": "for reduction in cell migration, Empty Vector (EV): 24 hours of treatment, EV cells, non-cytotoxic concentration, vs control group, FIG. 16A-16B", "method": "as §1\nFIG. 17. Evaluation of the dose-dependent effect of IWS1 inhibitors identified from in silico screening on the migration of cancer cells. Cell migration in vitro represents to some extent the ability of cells to metastasize in vivo.\nas §2"}, "[3]": {"tested_on": "Lipo863 cells", "assay": "Spheroid formation in matrigel extracellular matrix scaffold", "assay_type": "cell-based, human", "details": "14-day treatment; FIG. 19", "description": "FIG. 19. To evaluate the impact of IWS1 inhibition on spheroid formation, a matrigel extracellular matrix scaffold was employed.\nTo evaluate the impact of IWS1 inhibition on spheroid formation, a matrigel extracellular matrix scaffold was employed."}, "[4]": {"tested_on": "unresectable LPS", "details": "patients with unresectable LPS; cited from earlier work"}, "[5]": {"tested_on": "IWS1/Spt6 complex", "assay": "Co-immunoprecipitation of the IWS1/Spt6 complex from treated cells", "assay_type": "cell-based, human", "details": "Co-IP after 48 hours of treatment; vs DMSO negative control", "description": "The Co-IP method allowed us to analyze IWS1/Spt6 protein complex directly and assess the efficiency of the drug candidates to disrupt the complex."}, "[6]": {"tested_on": "dedifferentiated liposarcoma (DDLPS) cell line Lipo863", "assay": "Cell cytotoxicity (MTS) assay", "details": "Homo sapiens"}, "[7]": {"target": "T1, IWS1 (Homo sapiens, UniProt Q96ST2)", "T1 construct": "document uses human liposarcoma lines; nuclear/cytosolic fractionation", "assay": "Nuclear/cytosolic fraction analysis of IWS1 distribution", "assay_type": "cell-based", "details": "20 uM; 48-hour treatment; DMSO negative control ratio 0.75", "description": "The binding of the small molecule to IWS1 may cause the redistribution of the latter in the cell (cytoplasmic vs nuclear locations) due to conformational changes of the protein or disruption of its functions. To characterize the effect of a drug candidate on the distribution of IWS1 in the cell, we performed fraction analysis by separating cytoplasmic and nuclear proteins."}, "[8]": {"tested_on": "invasive DDLPS cell line Lipo246", "assay": "Invasion of DDLPS cells", "assay_type": "cell-based", "details": "48 h, read-out: decrease in invasion ability", "description": "FIG. 18. Evaluation of the effect of IWS1 inhibitors identified from in silico screening on the […] of cancer cells. Invasiveness is important parameter used to characterize the aggressive behavior of cancer cells.\nInvasiveness is important parameter used to characterize the aggressive behavior of cancer cells."}},
  "note": "Like-named read-outs stand apart in the source and are kept apart here.",
  "data": [
    {"smiles": "CN1CCC(=C2c3ccccc3C=Cc3ccccc32)CC1", "note": "[Cyproheptadine]", "values": [
      {"measurement": "reduction in migration, shIWS1 cells", "setting": "[1]", "result": "no significant reduction"},
      {"measurement": "reduction in cell migration, Empty Vector (EV)", "setting": "[2]", "result": 24, "unit": "%"}
    ]},
    {"smiles": "Clc1ccc2c(c1)CCc1cccnc1C2=C1CCNCC1", "note": "[Desloratadine]", "values": [
      {"measurement": "spheroid formation: number of spheroids", "setting": "[3]", "result": "significantly reduced"},
      {"measurement": "spheroid formation: size of spheroids", "setting": "[3]", "result": "significantly reduced"}
    ]},
    {"smiles": "COc1cccc2c1C(=O)c1c(O)c3c(c(O)c1C2=O)C[C@@](O)(C(=O)CO)C[C@@H]3O[C@H]1C[C@H](N)[C@H](O)[C@H](C)O1", "note": "[Doxorubicin]", "values": [
      {"measurement": "5-year survival", "setting": "[4]", "result": "20-30%"},
      {"measurement": "response rate", "setting": "[4]", "result": 25, "unit": "%"}
    ]},
    {"smiles": "CN1CCC(=C2c3ccccc3CC(=O)c3sccc32)CC1", "note": "[Ketotifen]", "values": [
      {"measurement": "reduction in migration, shIWS1 cells", "setting": "[1]", "result": "no significant reduction"},
      {"measurement": "decrease in amount of IWS1/Spt6 complex pulled down", "setting": "[5]", "result": "more than 50%"},
      {"measurement": "decrease in migration ability (dose-dependent)", "setting": "[2]; 1-10 uM solutions, FIG. 17", "result": "18-44%"},
      {"measurement": "reduction in cell migration, Empty Vector (EV)", "setting": "[2]", "result": 18, "unit": "%"},
      {"measurement": "IC50", "setting": "[6]; read-out: IC50 (cell cytotoxicity assay)", "result": 63, "unit": "µM"},
      {"measurement": "IC50", "setting": "[6]; read-out: IC50 (the concentration at which the drug kills 50% of cancer cells)", "result": 63, "unit": "µM"},
      {"measurement": "increase of ratio between nuclear and cytosolic fractions of IWS1", "setting": "[7]", "result": 1.1},
      {"measurement": "inhibition at 20 µM", "setting": "[8]", "result": 30, "unit": "%"},
      {"measurement": "spheroid formation: number of spheroids", "setting": "[3]", "result": "significantly reduced"},
      {"measurement": "spheroid formation: size of spheroids", "setting": "[3]", "result": "significantly reduced"}
    ]}
  ]
}
